This passage reports MEK1 kinase activity and TOPK kinase activity results from patent US10487054B2, “Therapeutic compounds” (REGENTS OF THE UNIVERSITY OF MINNESOTA, priority 2017, dated 2019).

SMILES strings stand for the structures.

For one assay, the target named is T1, MEK1 (Homo sapiens, UniProt Q02750).
T1 construct: purchased Millipore (Billerica, Mass.)
Nature of the assay: In vitro kinase assay ([γ-32P] ATP, autoradiography). It counts as biochemical. The note with it: 0.5, 1, 3, 5 or 10 μM. Here is the method: (§1) Active TOPK (200 ng) was incubated with different concentrations of ATP (0, 10 or 100 μM) and then mixed with compound 1-conjugated Sepharose 4B beads or Sepharose 4B beads. Proteins were pulled down and analyzed by Western blot. Data are representative of 3 independent experiments that gave similar results. FIGS. 2C and 2D show compound 1 binds to either TOPK (2C) or MEK1/2 (2D) ex vivo. Lysates from HaCaT cells (500 μg) were incubated with compound 1-conjugated Sepharose 4B beads or Sepharose 4B beads alone and the pulled-down proteins were analyzed by Western blot. Data are representative of 3 independent experiments that gave similar results. FIGS. 2E and 2F show compound 1 inhibits TOPK kinase (2E) activity but not MEK1 kinase (2F) activity in vitro. Active TOPK (200 ng) was mixed with compound 1 (0, 0.5, 1, 3, or 5 μM) or HI-032 (TOPK inhibitor, 10 μM) and then incubated with a [γ-^32P] ATP mixture. Similarly, MEK1 (200 ng) was mixed with compound 1 (0, 0.5, 1, 3, 5, or 10 μM) or PD098059 (MEK1 inhibitor, 5 μM) and then incubated with a [γ-^32P] ATP mixture. For 2E and 2F, the results are visualized by autoradiography and Coomassie blue staining serves as a loading control. […]
(§2) The in vitro kinase assay was conducted according to the instructions provided by Millipore (Billerica, Mass.). […] The relative amounts of incorporated radioactivity were assessed by autoradiography.

The target in another assay is T2, active TOPK (Homo sapiens, UniProt Q96KB5).
T2 construct: purchased SignalChem (Richmond, BC, Canada)
T2 sequence (Q96KB5 1-322): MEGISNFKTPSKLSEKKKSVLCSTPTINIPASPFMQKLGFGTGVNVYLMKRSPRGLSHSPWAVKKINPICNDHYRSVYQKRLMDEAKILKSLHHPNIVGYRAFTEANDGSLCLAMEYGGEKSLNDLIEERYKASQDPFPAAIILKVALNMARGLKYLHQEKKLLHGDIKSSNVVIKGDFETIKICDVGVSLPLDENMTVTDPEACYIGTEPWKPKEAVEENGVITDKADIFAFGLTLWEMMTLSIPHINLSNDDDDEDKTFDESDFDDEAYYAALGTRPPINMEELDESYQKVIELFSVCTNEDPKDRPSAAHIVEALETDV
The description is as above. It is filed as biochemical. The note with it: 0.5, 1, 3 or 5 μM. On the procedure: as §1, §2

T1 sequence (Q02750 whole entry): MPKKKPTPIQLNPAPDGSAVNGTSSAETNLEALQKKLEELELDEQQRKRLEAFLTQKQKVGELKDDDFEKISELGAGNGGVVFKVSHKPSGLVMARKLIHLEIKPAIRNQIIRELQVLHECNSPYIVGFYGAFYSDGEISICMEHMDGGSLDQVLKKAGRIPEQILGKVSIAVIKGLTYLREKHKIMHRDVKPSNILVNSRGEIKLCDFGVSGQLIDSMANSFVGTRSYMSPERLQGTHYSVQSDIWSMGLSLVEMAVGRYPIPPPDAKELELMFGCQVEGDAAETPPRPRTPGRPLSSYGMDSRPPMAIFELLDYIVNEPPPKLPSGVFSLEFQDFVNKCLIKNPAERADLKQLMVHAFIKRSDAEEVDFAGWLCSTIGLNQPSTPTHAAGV

For the compound `O=C1Nc2ccc(C34CC5CC(CC(C5)C3)C4)cc2C1=NO` [compound 1, 5-(adamantan-1-yl)-3-(hydroxyimino)indolin-2-one], on MEK1, the MEK1 kinase activity entry was “but not MEK1 activity”. In addition, the TOPK kinase activity entry on active TOPK is recorded as “effectively inhibited”.
